Values quoted from earlier work, collected in US8410082B2, “Fluorinated diaryl urea derivatives” (Concert Pharmaceuticals, Inc., priority 2009, dated 2013).

Settings: main circulating metabolite of sorafenib in plasma

SMILES: [O-][n+]1ccccc1 [pyridine N-oxide]
- share of circulating analytes at steady-state: 9-16%
